Measurements as given in ChEMBL document CHEMBL1208705, “4-(3-Trifluoromethylphenyl)-pyrimidine-2-carbonitrile as cathepsin S inhibitors: N3, not N1 is critically important” (Bioorg Med Chem Lett, 2010).

Assay: Chemical stability of the compound assessed as half life at 1.25 mM in presence of glutathione by NMR analysis
Format: physicochemical
Details: gsh

CN1CCN(CCCOc2ccc(-c3ccnc(C#N)c3)cc2C(F)(F)F)CC1
half-life at 1250 µM: 120 h

CN1CCN(CCCOc2ccc(-c3cccc(C#N)n3)cc2C(F)(F)F)CC1
half-life at 1250 µM: 150 h
